The values that follow come from BindingDB's records for doi:10.1016/j.ejmech.2015.12.016 (Shenyang Pharmaceutical University, 2016).

Test [1] can be described thus: Inhibition of VEGFR-3 (unknown origin) by tumor cell growth inhibition assay.
Test [2] in a line: Inhibition of VEGFR-2 (unknown origin) by tumor cell growth inhibition assay.
Test [3] can be described thus: Inhibition of VEGFR-1 (unknown origin) by tumor cell growth inhibition assay.
Test [4] in a line: Inhibition of c-Met (unknown origin) by tumor cell growth inhibition assay.

Molecules are shown by their SMILES.

Turning to `Cn1ccnc1-c1cc2c(Oc3ccc(NC(=S)NC(=O)Cc4ccccc4)cc3F)ccnc2s1`, the IC50 was found to be 4 nM in test [1], 3 nM in test [2], 3 nM in test [3] and 1 nM in test [4].

For orientation: IC50 means the point on the concentration scale where inhibition reaches its midpoint.
